Experimental data reported in patent US8778727B2, “Method of manufacturing organic electroluminescence display device” (Canon Kabushiki Kaisha, priority 2011, dated 2014).

Tests used:
[1] = Etching (dissolution) of deposited layers by IPA/water mixed solvent; format: physicochemical; settings: IPA 60 wt %; for etching rate: deposited film
Description: In the present invention, a larger etching rate means a higher dissolution rate. In addition, a larger etching rate means a higher solubility of a layer having a material of interest in the solvent (polar solvent).
FIG. 3 is a graph illustrating thickness changes in the compound 1 and the compound A2 over an etching time. Here, FIG. 3 illustrates the results of the etching of the respective layers when a mixed solvent obtained by mixing isopropyl alcohol (IPA) and water so that IPA may account for 60 wt % (hereinafter, sometimes referred to as “IPA/water mixed solvent”) is used as a solvent formed of a polar solvent.
When the etching rates of the respective layers are calculated with their etching conditions made identical to each other, the etching rate of the layer A is 0.008 nm/sec but the etching rate of the layer B is 0.87 nm/sec, that is, a ratio of the latter to the former is about 100.
Here, a ratio (n) between the etching rates of the organic compound layer (corresponding to the layer A) and the release layer (corresponding to the layer B) by the polar solvent can be represented like the following equation.
Performed next was a second processing step of removing a part of the release layer 30 with a mixed solvent obtained by mixing water and IPA so that an IPA concentration was 60 wt % to reduce the thickness of the release layer 30. It should be noted that as the etching rate of the compound (phenanthroline derivative represented by the formula (2)) constituting the release layer 30 in this example was 0.9 nm/sec, part of the release layer 30 was removed through immersion in the mixed solvent for 530 seconds so that the thinning was performed (FIG. 2M). As a result of the second processing step, the thickness of the release layer 30 became 20 nm. In addition, each release layer subjected to the thinning in the second processing step functions as the charge transport layer (electron transport layer) 23a, 23b, or 23c. Next, vacuum heating was performed at 80° C. so that the solvent remaining on the charge transport layer was removed.

[2] = Solubility in IPA/water mixed solvent (FIG. 4); format: physicochemical; settings: IPA concentration 80 wt %; per 1 g solvent
Description: The solubility of a compound as a constituent material for each layer in the IPA/water mixed solvent varies depending on the weight ratio of IPA in the mixed solvent. FIG. 4 is a graph illustrating the solubilities of the compound 1 (condensed polycyclic hydrocarbon compound) and the compound A2 (heterocyclic compound) in the IPA/water mixed solvent (polar solvent). Here, in the graph of FIG. 4, the axis of abscissa indicates the weight percent concentration of IPA in the IPA/water mixed solvent, and the axis of ordinate indicates the amount of the condensed polycyclic hydrocarbon compound or heterocyclic compound to dissolve in 1 g of the solvent.

| SMILES | etching rate [1] | amount dissolving in 1 g of the IPA/water mixed solvent [2] | thickness change over etching time (FIG. 3) [1] | ratio (n) of etching rate of release layer (layer B, compound A2) to organic compound layer (layer A, compound 1) ([1]; identical etching conditions) | etching rate ([1]; listed as formula (2)) |
| --- | --- | --- | --- | --- | --- |
| c1ccc(-c2cc(-c3ccccc3)cc(-c3cccc(-c4cccc(-c5ccc6c7ccccc7c7ccccc7c6c5)c4)c3)c2)cc1 [compound B1] | 1.3 nm/s | – | – | – | – |
| CC1(C)c2cc(-c3ccc4ccc5cccc6ccc3c4c56)ccc2-c2ccc(-c3ccc4ccc5cccc6ccc3c4c56)cc21 [compound 1] | 0.008 nm/s | 5 µg | nearly no thickness reduction | – | – |
| CC1(C)c2ccccc2-c2ccc(-c3ccc4ccc5ccc(-c6ccc7c(c6)C(C)(C)c6ccccc6-7)nc5c4n3)cc21 [compound A2] | 0.87 nm/s | 73 µg | reduces over time | about 100 | 0.9 nm/s |
| O=C1c2ccccc2OC2C=CC(c3cccc(-c4cccc(-c5cc(-c6cccc(-c7ccccc7)c6)cc(-c6cccc(C7C=CC=CC7)c6)c5)c4)c3)=CC12 (stereo not shown) [compound C1] | 1.5 nm/s | – | – | – | – |
